pEC50: −log10 of the molar value. In brackets after ≈: the same amount, converted by molar mass.
How the values were obtained:
SARS-CoV2 (Vero) = assay: microbe, parasite or virus in culture; format: cell-based, SARS-CoV-2; details: Severe acute respiratory syndrome coronavirus 2, Vero, 48 h
SARS-CoV2 (Calu3) = assay: microbe, parasite or virus in culture; format: cell-based, SARS-CoV-2; details: Severe acute respiratory syndrome coronavirus 2, Calu-3, 72 h
[1] = Cytotoxicity assay measuring cell proliferation in PBM cells; format: cell-based; details: remdesivir
Protocol: Numbers in parentheses indicate percent inhibition at the highest concentration tested. Cytotoxicity assays measuring the cell proliferation in PBM and Vero cells were performed in parallel to the antiviral assays.

SARS-CoV2 (Caco2) = assay: microbe, parasite or virus in culture; details: Severe acute respiratory syndrome coronavirus 2, Caco-2, 72 h
[2] = test system: wild type SARS-CoV-2 pseudovirion; assay: microbe, parasite or virus in culture; format: cell-based; details: Severe acute respiratory syndrome coronavirus 2, read-out: EC50 % Inhibition (μg/mL)

CCC(CC)COC(=O)[C@H](C)N[P@](=O)(OC[C@H]1O[C@@](C#N)(c2ccc3c(N)ncnn23)[C@H](O)[C@@H]1O)Oc1ccccc1 [Remdesivir]
pEC50 (SARS-CoV2 (Vero); read-out: Anti-SARS-CoV2 (Vero) EC50): 6.22 | EC90 (SARS-CoV2 (Vero); read-out: Anti-SARS-CoV2 (Vero) EC90): 1.6 µM | pEC50 (SARS-CoV2 (Calu3); read-out: Anti-SARS-CoV2 (Calu3) EC50): 8.70 | EC90 (SARS-CoV2 (Calu3); read-out: Anti-SARS-CoV2 (Calu3) EC90): 0.02 µM | CC50 [1]: 1.2 µM | pEC50 (SARS-CoV2 (Caco2); read-out: Anti-SARS-CoV2 (Caco2) EC50): 7.00 | EC90 (SARS-CoV2 (Caco2); read-out: Anti-SARS-CoV2 (Caco2) EC90): 0.4 µM

CCN(CCO)CCCC(C)Nc1ccnc2cc(Cl)ccc12 (centres unmarked) [Hydroxy cholorquine]
EC50 [2]: 1.14 µg/mL (≈ 3.39 µM)

From patent US20250288632A1, “Viral Entry Inhibitors Derived From Botanicals” (priority 2022, published 2025)
